# Laboratory results taken from patent US10206937B2, “Boronic acid derivatives and therapeutic uses thereof” (Qpex Biopharma, Inc., priority 2014, dated 2019).
# Test system: strains of Enterobacteriaceae producing various carbapenemases (class A, D and B; 104 strains)
# Assay: Antibiotics potentiation by Compound 27 (MIC; meropenem, doripenem, ertapenem, cefepime)
# Type: cell-based
# Details: + 27 = with Compound 27 at fixed 4 μg/ml
structure (smiles),measurement,setting,value
C[C@@H](O)[C@H]1C(=O)N2C(C(=O)O)=C(S[C@@H]3CN[C@H](C(=O)Nc4cccc(C(=O)O)c4)C3)[C@H](C)[C@H]12 [E],MIC,strain CF1012 Citrobacter freundii (KPC-2),Z (MIC of greater than 10 μg/mL)
same,MIC,strain CF1021 Citrobacter freundii (CMY-type; VIM-1),Y (MIC of 1 μg/mL to 10 μg/mL)
same,MIC,"strain CF1022 Citrobacter freundii (SHV-12(2be), TEM-OSBL(2b); IMP-8)",Y (MIC of 1 μg/mL to 10 μg/mL)
same,MIC,"strain CF1023 Citrobacter freundii (SHV-12(2be), TEM-OSBL(2b); CTX-M-3; CMY-34; NDM-1)",Z (MIC of greater than 10 μg/mL)
same,MIC,strain CL1080 Enterobacter cloacae (IMP-1),Y (MIC of 1 μg/mL to 10 μg/mL)
same,MIC,"strain EA1019 Enterobacter aerogenes (SHV-5, VIM-1)",Z (MIC of greater than 10 μg/mL)
same,MIC,strain EC1007 Escherichia coli (KPC-3),X (MIC of less than 1 μg/mL)
same,MIC,"strain EC1061 Escherichia coli (NDM-1, CMY-6)",Z (MIC of greater than 10 μg/mL)
same,MIC,"strain EC1062 Escherichia coli (OXA-48, CTX-M-15)",Y (MIC of 1 μg/mL to 10 μg/mL)
same,MIC,"strain EC1064 Escherichia coli (NDM-1, CMY-6, CTX-M-15)",Z (MIC of greater than 10 μg/mL)
same,MIC,strain EC1065 Escherichia coli (IMP-1),Y (MIC of 1 μg/mL to 10 μg/mL)
same,MIC,strain EC1068 Escherichia coli (VIM-1),Z (MIC of greater than 10 μg/mL)
same,MIC,strain EC1069 Escherichia coli (CTX-M-27; NDM-1),Z (MIC of greater than 10 μg/mL)
same,MIC,strain EC1070 Escherichia coli (TEM-OSBL(2b); CMY-42; NDM-5),Z (MIC of greater than 10 μg/mL)
same,MIC,strain EC1072 Escherichia coli (CTX-M-3; NDM-1),Z (MIC of greater than 10 μg/mL)
same,MIC,strain ECL1004 Enterobacter cloacae (NMC-A),Z (MIC of greater than 10 μg/mL)
same,MIC,"strain ECL1026 Enterobacter cloacae (KPC-2, TEM-1)",Z (MIC of greater than 10 μg/mL)
same,MIC,"strain ECL1036 Enterobacter cloacae (KPC-3, TEM-1)",Y (MIC of 1 μg/mL to 10 μg/mL)
same,MIC,strain ECL1045 Enterobacter cloacae (VIM-1),Z (MIC of greater than 10 μg/mL)
same,MIC,"strain ECL1055 Enterobacter cloacae (KPC-3, TEM)",Z (MIC of greater than 10 μg/mL)
same,MIC,"strain ECL1057 Enterobacter cloacae (NDM-1, TEM-1, CTX-M-15)",Z (MIC of greater than 10 μg/mL)
same,MIC,"strain ECL1058 Enterobacter cloacae (KPC-3, SHV-11, TEM-1)",Z (MIC of greater than 10 μg/mL)
same,MIC,"strain ECL1059 Enterobacter cloacae (KPC-3, SHV-12, TEM-1)",Y (MIC of 1 μg/mL to 10 μg/mL)
same,MIC,"strain ECL1061 Enterobacter cloacae (KPC-3, Hyper AmpC expression)",Z (MIC of greater than 10 μg/mL)
same,MIC,strain ECL1082 Enterobacter cloacae (VIM-1),Y (MIC of 1 μg/mL to 10 μg/mL)
same,MIC,strain ECL1084 Enterobacter cloacae (CTX-M-15; ACT-16; NDM-1),Z (MIC of greater than 10 μg/mL)
same,MIC,"strain ECL1085 Enterobacter cloacae (SHV-31(2be), TEM-1(2b); CTX-M-15; NDM-1)",Z (MIC of greater than 10 μg/mL)
same,MIC,"strain ECL1086 Enterobacter cloacae (VIM-31, OXA-48(c))",Z (MIC of greater than 10 μg/mL)
same,MIC,strain ECL1087 Enterobacter cloacae (VIM-1),Z (MIC of greater than 10 μg/mL)
same,MIC,strain ECL1088 Enterobacter cloacae (TEM-1(2b); CTX-M-14; ACT-type; VIM-1),Z (MIC of greater than 10 μg/mL)
same,MIC,strain ECL1089 Enterobacter cloacae (ACT-type; IMP-1),Z (MIC of greater than 10 μg/mL)
same,MIC,strain ECL1090 Enterobacter cloacae (TEM-1(2b); CTX-M-22; ACT-type; IMP-8),Y (MIC of 1 μg/mL to 10 μg/mL)
same,MIC,strain ECL1091 Enterobacter cloacae (VIM-1),Y (MIC of 1 μg/mL to 10 μg/mL)
same,MIC,strain ECL1092 Enterobacter cloacae (TEM-OSBL(2b); ACT-32; VIM-1),Y (MIC of 1 μg/mL to 10 μg/mL)
same,MIC,strain ECL1093 Enterobacter cloacae (TEM-OSBL(2b); ACT-32; VIM-1),Y (MIC of 1 μg/mL to 10 μg/mL)
same,MIC,strain ECL1094 Enterobacter cloacae (VIM-1),Z (MIC of greater than 10 μg/mL)
same,MIC,"strain ECL1096 Enterobacter cloacae (CMY-4, VIM-4, OXA-48(c))",Z (MIC of greater than 10 μg/mL)
same,MIC,"strain ECL1097 Enterobacter cloacae (SHV-31(2be), TEM-OSBL(2b); CTX-M-15; ACT-31; NDM-1)",Z (MIC of greater than 10 μg/mL)
same,MIC,strain ECL1098 Enterobacter cloacae (TEM-OSBL(2b); DHA-1; ACT-16; NDM-1),Z (MIC of greater than 10 μg/mL)
same,MIC,strain KP1001 Klebsiella pneumoniae (KPC TEM SHV),Z (MIC of greater than 10 μg/mL)
same,MIC,strain KP1002 Klebsiella pneumoniae (KPC TEM SHV),Y (MIC of 1 μg/mL to 10 μg/mL)
same,MIC,strain KP1003 Klebsiella pneumoniae (KPC TEM SHV),Z (MIC of greater than 10 μg/mL)
same,MIC,"strain KP1004 Klebsiella pneumoniae (KPC-2, TEM-1, SHV-11)",Z (MIC of greater than 10 μg/mL)
same,MIC,strain KP1008 Klebsiella pneumoniae (KPC-2),Y (MIC of 1 μg/mL to 10 μg/mL)
same,MIC,"strain KP1014 Klebsiella pneumoniae (VIM-1, TEM, SHV)",Y (MIC of 1 μg/mL to 10 μg/mL)
same,MIC,"strain KP1054 Klebsiella pneumoniae (VIM-1, SHV-11)",Y (MIC of 1 μg/mL to 10 μg/mL)
same,MIC,"strain KP1059 Klebsiella pneumoniae (VIM-1, SHV-11)",Z (MIC of greater than 10 μg/mL)
same,MIC,"strain KP1061 Klebsiella pneumoniae (KPC-3, SHV-11, TEM-1)",Z (MIC of greater than 10 μg/mL)
same,MIC,"strain KP1064 Klebsiella pneumoniae (KPC-2, SHV-11, TEM-1)",Z (MIC of greater than 10 μg/mL)
same,MIC,"strain KP1065 Klebsiella pneumoniae (VIM-1, SHV-11)",Y (MIC of 1 μg/mL to 10 μg/mL)
same,MIC,"strain KP1070 Klebsiella pneumoniae (KPC-2, SHV-11, TEM-1)",Z (MIC of greater than 10 μg/mL)
same,MIC,"strain KP1074 Klebsiella pneumoniae (KPC-3, SHV-11, TEM)",Z (MIC of greater than 10 μg/mL)
